A short description of data set [1]: In vivo pharmacokinetics, oral, mice. More on the design: species or system Balb/c mice; Ka: unit not given here. As to conditions: 5 mg/kg oral, plasma. The procedure:
Compounds were administered orally to mice (Balb/c mice) at a dose of 5 mg/kg as a suspension in 0.5% CMC and Tween 80. Samples were derived from plasma at different time points i.e. 0.16 h, 0.5 h, 1 h, 2 h, 4 h, 6 h, 8 h and 24 h, which were then analysed by LC-MS/MS to generate the required pharmacokinetic parameters.

In data set [2] the test system is M. tuberculosis H37Rv (ATCC 27294). Briefly: MIC by broth dilution method, M. tuberculosis H37Rv. Format: cell-based. As to conditions: Mycobacterium tuberculosis. In general terms: Broth dilution looks for growth in wells or tubes with falling amounts of substance.
Data set [3] is described as follows: Cytotoxicity assay (MTT) in macrophage J774 cells. It counts as cell-based. As to conditions: mouse, J774 macrophage cells; also called safety index. The essentials: (§1)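 J774 cells seeded at 3×10^4 cells/cm^2 in RPMI with FCS reduced to 5%, then exposed to compounds at 40 μg/ml for 24 hrs. MTT reduction read at 450 nm; percentage cytotoxicity calculated relative to untreated cells.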

The test system of data set [4] is macrophage J774 cells line. Put plainly: Cytotoxicity assay (MTT) in macrophage J774 cells. Format: cell-based. As to conditions: J774 cells, 24 hrs, MTT. The essentials: as §1
A further data set relates to M. tuberculosis H37Rv. Briefly: Combination studies, checkerboard method. Format: cell-based, Mycobacterium tuberculosis. As to conditions: for MIC alone / MIC with Ethambutol / MIC with INH / MIC with Rifampicin / MIC with IA25 / MIC with IIA3: checkerboard; for MIC with Ethambutol: in combination with Ethambutol; for MIC with INH: in combination with INH; for MIC with Rifampicin: in combination with Rifampicin; for MIC with IA25: in combination with IA25; for MIC with IIA3: in combination with IIA3. The procedure: The efficacy of compounds IA25 and IIA3 (conc range 4 μg/ml to 0.007 μg/ml) in combination with currently used anti-TB drugs such as rifampicin, isoniazid and ethambutol (each drug tested at conc range 4 μg/ml to […]), wherein the ratio of drugs was ranging between 0.1% to 50%, was determined in vitro using checkerboard method. The checkerboard procedure was performed based on the MIC values by the broth microdilution method. The checkerboard method was performed in 96 well U bottom microtitre plates. 100 microliters of 4× concentration of drug was added to first column of the plate. 50 microliters from first column was transferred to second column and was serially diluted in horizontal manner upto column 10 of the plate. Seven dilutions of 4× concentration of compound were prepared in eppendorfs and fifty microliters of each concentration was added vertically starting from eleventh column of row eight to row second of the plate. First row of the plate served as drug control. 100 microliters of 1:10 diluted of 1 Mc Farland inoculum was added to each well of the plate. Plates were then incubated at 37° C. for 14 days. MIC of drug alone and in presence of compound and vice versa was observed visually. […] The FIC index value for each concentration of two-drug combination was calculated and the minimum value was adopted.

[5] abbreviates: 504 h, broth dilution, 3 weeks, read-out: MIC M. tb H37Rv.
Setting [6] is: FIC B, compound in combination with Ethambutol.
The mark [7] stands for this setting: FIC B, compound in combination with INH.
The mark [8] stands for this setting: FIC B, compound in combination with Rifampicin.
[9] abbreviates: FIC A, drug in combination with IA25.
Setting [10] is: FIC A, drug in combination with IIA3.
The mark [11] stands for this setting: 504 h, read-out: MIC M. tb H37Rv, broth dilution, 3 weeks.
Where [12] appears, read: read-out: MIC value, text summary: sensitive H37Rv as well as MDR and XDR strains of M. tuberculosis.

Converted amounts (≈) assume the structure as drawn. Read-outs that look alike come from different tables or passages of the source. Some results are limits rather than exact numbers.

As a reminder, the Cmax is the maximum level reached in the sampled fluid or tissue. Broadly, the Tmax is the time at which the peak concentration occurs. One may read the AUC as concentration integrated over time. For orientation: MIC means the lowest concentration that inhibits growth of the organism.

Consider `C[C@]1(COc2ccc(N3CCC(Oc4ccc(OC(F)(F)F)cc4)CC3)cc2)Cn2cc([N+](=O)[O-])nc2O1` [OPC-67683, reference compound], for which, in data set [1], the CLB was 0.0717 mL/min/kg, the concentration peaked (Cmax) at 668 nM, the Tmax was 2.00 h and the Vdarea is 0.76 L/kg. The same compound came in with a t1/2absorption in data set [1] of 0.64 h. Moreover, in data set [1] (Balb/c, mouse), the AUC worked out at 9.32 µM·h.

Turning to `C[C@]1(COc2ccc(-n3cc(COc4ccc(OC(F)(F)F)cc4)nn3)cc2)Cn2cc([N+](=O)[O-])nc2O1` [IA25], the MIC in data set [2] (setting [5]) was 0.12 µg/mL (≈ 0.225 µM). In addition, in data set [3], the selectivity ratio at 24 h, 40 μg/ml was > 10. The Cytotoxicity in data set [4] was >40 µg/mL. In data set [1], this compound gave a CLB of 0.12 mL/min/kg, a Cmax of 1020 nM, a Ka of 1.71 and a Vdarea of 0.36 L/kg. Besides, the t1/2absorption in data set [1] is 0.41 h. Besides, the Cmax in data set [1] (Balb/c, mouse, po, 5 mg/kg) is 1020 nM. The compound also showed an AUC in data set [1] (Balb/c, mouse) of 14 µM·h. In addition, the time of peak concentration (Tmax) in data set [1] (Balb/c, mouse, read-out: Tmax) was 2 h. In addition, the “FIC (MIC combination/MIC alone)” value with M. tuberculosis H37Rv (setting [6]) is “FIC B = 0.5”. The “FIC (MIC combination/MIC alone)” value in the data set on M. tuberculosis H37Rv (setting [7]) is given as “FIC B = 0.25”. Also, the “FIC (MIC combination/MIC alone)” value in the data set on M. tuberculosis H37Rv (setting [8]) is reported as “FIC B = 0.5”. In the data set on M. tuberculosis H37Rv, the MIC alone is 0.12 µg/mL, the MIC with Ethambutol turned out to be 0.06 µg/mL, the MIC with INH was 0.03 µg/mL and the MIC with Rifampicin was found to be 0.06 µg/mL. Further, the “FIC Index (FIC A + FIC B)” value in the data set with M. tuberculosis H37Rv (combination with Ethambutol) came to 0.75. Besides, in the data set on M. tuberculosis H37Rv (combination with INH), the “FIC Index (FIC A + FIC B)” value is reported as 0.5. Also, the Observations entry in the data set with M. tuberculosis H37Rv (combination with INH (isoniazid)) is recorded as “synergistic effect”. The “FIC Index (FIC A + FIC B)” value in the data set on M. tuberculosis H37Rv (combination with Rifampicin) turned out to be 0.75.

With `CC[C@@H](CO)NCCN[C@@H](CC)CO` [Ethambutol, reference compound], the “FIC (MIC combination/MIC alone)” value in the data set on M. tuberculosis H37Rv (setting [9]) was “FIC A = 0.25”. In the data set on M. tuberculosis H37Rv (setting [10]), the “FIC (MIC combination/MIC alone)” value is “FIC A = 0.5”. In the data set with M. tuberculosis H37Rv, the MIC alone was 1 µg/mL, the MIC with IA25 came out at 0.25 µg/mL and the MIC with IIA3 worked out at 0.5 µg/mL.

In the case of `CO[C@H]1/C=C/O[C@@]2(C)Oc3c(C)c(O)c4c(O)c(c(/C=N/N5CCN(C)CC5)c(O)c4c3C2=O)NC(=O)/C(C)=C\C=C\[C@H](C)[C@H](O)[C@@H](C)[C@@H](O)[C@@H](C)[C@H](OC(C)=O)[C@@H]1C` [Rifampicin, reference compound], the “FIC (MIC combination/MIC alone)” value in the data set on M. tuberculosis H37Rv (setting [9]) was “FIC A = 0.25”. In addition, in the data set with M. tuberculosis H37Rv (setting [10]), the “FIC (MIC combination/MIC alone)” value was “FIC A = 0.25”. Besides, in the data set on M. tuberculosis H37Rv, the MIC alone worked out at 0.12 µg/mL, the MIC with IA25 was 0.03 µg/mL and the MIC with IIA3 was found to be 0.06 µg/mL.

As for `C[C@]1(COc2ccc(-c3cc(COc4ccc(F)cc4)on3)cc2)Cn2cc([N+](=O)[O-])nc2O1` [IC14, (R)-2-{4-[5-(4-fluorophenoxymethyl)isoxazol-3-yl]phenoxymethyl}-2,3-dihydro-2-methyl-6-nitroimidazo[2,1-b]oxazole], the MIC in data set [2] (setting [11]) was determined as 0.06 µg/mL (≈ 0.129 µM). Moreover, the MIC in data set [2] (setting [12]) is < 1 µg/mL. Also, the selectivity ratio at 24 h, 40 μg/ml in data set [3] is > 10. For the same compound, in data set [4], the Cytotoxicity is >40 µg/mL. Moreover, in data set [1], the CLB was 3.37 mL/min/kg, the Ka came out at 1.056, the Vdarea worked out at 1.54 L/kg and the t1/2absorption was 0.656 h. The compound further displayed a Cmax in data set [1] (Balb/c, mouse, po, 5 mg/kg) of 353 nM. Further, the AUC in data set [1] (Balb/c, mouse) worked out at 1.55 µM·h. Also, the Tmax in data set [1] (Balb/c, mouse, read-out: Tmax) turned out to be 2 h.

Turning to `C[C@]1(COc2ccc(-c3cc(COc4ccc(OC(F)(F)F)cc4)on3)cc2)Cn2cc([N+](=O)[O-])nc2O1` [IC13, (R)-2-{4-[5-(4-trifluoromethoxyphenoxymethyl)isoxazol-3-yl]phenoxymethyl}-2,3-dihydro-2-methyl-6-nitroimidazo[2,1-b]oxazole], in data set [2] (setting [11]), the MIC worked out at 0.12 µg/mL (≈ 0.225 µM). Moreover, in data set [2] (setting [12]), the MIC was < 1 µg/mL. In data set [3], the selectivity ratio at 24 h, 40 μg/ml was > 10. Also, the Cytotoxicity in data set [4] is >40 µg/mL. In data set [1], this compound registered a CLB of 0.055 mL/min/kg, a Ka of 1.21, a Vdarea of 0.13 L/kg and a t1/2absorption of 0.57 h. For the same compound, the concentration in data set [1] (Balb/c, mouse, po, 5 mg/kg) peaked (Cmax) at 2530 nM. Also, in data set [1] (Balb/c, mouse), the AUC is 33.7 µM·h. Moreover, in data set [1] (Balb/c, mouse, read-out: Tmax), the Tmax was determined as 2 h.

Consider `C[C@]1(COc2ccc(NC(=O)Nc3ccc(C(F)(F)F)cc3)cc2)Cn2cc([N+](=O)[O-])nc2O1` [IIA3, (R)-1-(4-trifluoromethylphenyl)-3-{4-(2-methyl-6-nitro-2,3-dihydroimidazo[2,1-b]oxazol-2-yl)methoxyphenyl}urea], for which the MIC in data set [2] (setting [5]) was 0.12 µg/mL (≈ 0.251 µM); in data set [2] (setting [12]) it was < 1 µg/mL. Further, the selectivity ratio at 24 h, 40 μg/ml in data set [3] is > 10. Moreover, in data set [4], the Cytotoxicity is >40 µg/mL. The “FIC (MIC combination/MIC alone)” value in the data set with M. tuberculosis H37Rv (setting [6]), in the data set with M. tuberculosis H37Rv (setting [7]) and with M. tuberculosis H37Rv (setting [8]) was “FIC B = 0.25” throughout. For the same compound, in the data set on M. tuberculosis H37Rv, the MIC alone was 0.5 µg/mL. In addition, the MIC with Ethambutol with M. tuberculosis H37Rv is 0.12 µg/mL. Also, the MIC with INH in the data set with M. tuberculosis H37Rv was found to be 0.12 µg/mL. In the data set with M. tuberculosis H37Rv, the MIC with Rifampicin came out at 0.12 µg/mL. Moreover, the “FIC Index (FIC A + FIC B)” value was 0.75 in the data set with M. tuberculosis H37Rv (combination with Ethambutol), 0.75 in the data set with M. tuberculosis H37Rv (combination with INH) and 0.5 with M. tuberculosis H37Rv (combination with Rifampicin). In the data set on M. tuberculosis H37Rv (combination with Rifampicin), the Observations result is “synergistic effect”.

Consider `C[C@]1(COc2cccc(-n3cc(COc4ccc(OC(F)(F)F)cc4)nn3)c2)Cn2cc([N+](=O)[O-])nc2O1` [IA33], for which the MIC in data set [2] (setting [5]) is 0.12 µg/mL (≈ 0.225 µM). For the same compound, the selectivity ratio at 24 h, 40 μg/ml in data set [3] was > 10. Besides, the Cytotoxicity in data set [4] was >40 µg/mL. In data set [1], this compound displayed a CLB of 1.2 mL/min/kg, a Ka of 0.478, a Vdarea of 0.25 L/kg and a t1/2absorption of 1.448 h. The maximum concentration (Cmax) in data set [1] (Balb/c, mouse, po, 5 mg/kg) amounted to 595 nM. In addition, the AUC in data set [1] (Balb/c, mouse) stood at 3.95 µM·h. Besides, in data set [1] (Balb/c, mouse, read-out: Tmax), the Tmax amounted to 2 h.

`NNC(=O)c1ccncc1` [INH, isoniazid, reference compound]: the “FIC (MIC combination/MIC alone)” value in the data set with M. tuberculosis H37Rv (setting [9]) is recorded as “FIC A = 0.25”. In addition, in the data set with M. tuberculosis H37Rv (setting [10]), the “FIC (MIC combination/MIC alone)” value is recorded as “FIC A = 0.5”. In the data set on M. tuberculosis H37Rv, the MIC alone amounted to 0.25 µg/mL, the MIC with IA25 is 0.06 µg/mL and the MIC with IIA3 was determined as 0.12 µg/mL.

Source of the values: patent US9845330B2, “6-nitro-2,3-dihydroimidazo[2,1-b]oxazoles and a process for the preparation thereof” (priority 2013, dated 2017).
